For assay [1], the system named is Mycobacterium tuberculosis. As to the kind of experiment: Effective concentration required for the reduction in colony forming units (CFU) at seven days compared to drug free controls. The class given is functional. The following applies: 168 h.
The subject of assay [2] is Mycobacterium tuberculosis. Put plainly: In vitro antimycobacterial activity against Mycobacterium tuberculosis Erdman in broth cluture infected with macrophages. The class given is functional.
Assay [3] deals with Mycobacterium tuberculosis. Put plainly: Ratio of effective concentration required for the reduction in colony forming units (CFU) at seven days compared to drug free controls to that of MIC against Mycobacterium tuberculosis Erdman. Format: functional.
Assay [4] concerns Mycobacterium tuberculosis. Put plainly: In vitro antimycobacterial activity against Mycobacterium tuberculosis H37Rv in broth cluture infected with macrophages. Format: functional.
The next assay relates to Vero. As to the kind of experiment: Selective index of IC50 of Vero Cells to that of MIC of Mycobacterium tuberculosis H37Rv. The class given is functional, Chlorocebus sabaeus.
For assay [5], the system named is Mycobacterium tuberculosis. Put plainly: In vitro antimycobacterial activity against Mycobacterium tuberculosis H37Rv in broth cluture infected with macrophages; Range 0.025-0.05. Format: functional.

The structures appear in SMILES notation. ≈ marks a conversion by molar mass, not a printed value. A value given as a limit tells only on which side of the number the result lay.

By EC90 is commonly meant the point of the concentration-response curve where the effect stands at 90%. A higher EC90 goes with weaker potency. Broadly, the EC99 is the concentration needed for an effect of 99%. Lower therefore signals an effect from little substance. On to `N#CC[n+]1ccc(C(=O)NNCc2ccccc2)cc1`, for which, in assay [1], the EC90 worked out at 0.116 µg/mL and the EC99 came out at 1.49 µg/mL. Also, the MIC in assay [2] was determined as 12.5 µg/mL. Moreover, the Ratio in assay [3] is reported as 0.0093. For the same compound, in assay [4], the MBC amounted to 1.56 µg/mL and the MIC was 0.8 µg/mL.
As to `C/C(=N\NC(=O)c1ccncc1)C(F)(F)F`, in assay [1], it took 0.046 µg/mL (≈ 0.199 µM) to reach the 90% level (EC90) and the EC99 came out at 0.41 µg/mL. In assay [2], the MIC stood at 0.1 µg/mL (≈ 0.433 µM). Besides, the Ratio in assay [3] came out at 0.46. Also, in assay [4], the MBC worked out at 0.2 µg/mL (≈ 0.865 µM) and the MIC turned out to be 0.05 µg/mL (≈ 0.216 µM). Also, the Selective index in the assay with Vero amounted to 1160.
Consider `C/C(=N\NC(=O)c1ccncc1)c1ccc(F)cc1`, for which, in assay [1], it took 1.84 µg/mL (≈ 7.15 µM) to reach the 90% level (EC90) and the EC99 is 5.25 µg/mL. The MIC in assay [2] came to 1.56 µg/mL (≈ 6.06 µM). Moreover, in assay [3], the Ratio came out at 1.18. Also, the MIC in assay [4] was found to be 1.6 µg/mL (≈ 6.22 µM). In addition, the Selective index in the assay with Vero is recorded as over 78.
In assay [1], `O=C(N/N=C/C(F)(F)F)c1ccncc1` yielded a concentration for an effect of 90% (EC90) of 0.05 µg/mL (≈ 0.23 µM) and an EC99 of 0.25 µg/mL. The compound also gave an MIC in assay [4] of 0.05 µg/mL (≈ 0.23 µM). In addition, the Selective index in the assay with Vero is recorded as 302.
As for `O=C(N/N=C/c1ccc(C(F)(F)F)cc1)c1ccncc1`, in assay [1], the EC90 was 0.04 µg/mL (≈ 0.136 µM) and the EC99 was 0.09 µg/mL. Also, in assay [2], the MIC turned out to be 0.1 µg/mL (≈ 0.341 µM). For the same compound, in assay [3], the Ratio worked out at 0.4. In assay [4], this compound gave an MBC of 0.2 µg/mL (≈ 0.682 µM) and an MIC of 0.05 µg/mL (≈ 0.171 µM). For the same compound, the Selective index in the assay on Vero was over 1250.
In assay [5], `NNC(=O)c1ccncc1` [ISONIAZID] yielded an MIC of 0.05 µg/mL (≈ 0.365 µM). In assay [1], this compound registered an EC90 of 0.03 µg/mL (≈ 0.219 µM) and an EC99 of 0.42 µg/mL. The compound further registered an MBC in assay [4] of 0.1 µg/mL (≈ 0.729 µM). Besides, the Selective index with Vero was over 20000.
With `O=C(N/N=C/c1ccccc1F)c1ccncc1`, in assay [1], the EC90 is 0.05 µg/mL (≈ 0.206 µM) and it took 0.14 µg/mL to reach the 99% level (EC99). The same compound displayed an MIC in assay [2] of 0.05 µg/mL (≈ 0.206 µM). The Ratio in assay [3] is 1. This compound also came in with an MIC in assay [4] of 0.05 µg/mL (≈ 0.206 µM). Besides, in the assay with Vero, the Selective index was 168.
As to `CC(NNC(=O)c1ccncc1)c1ccccc1F` (stereo not drawn), it took 2.54 µg/mL (≈ 9.8 µM) to reach the 90% level in assay [1] (EC90). The compound further came in with an EC99 in assay [1] of 6.06 µg/mL. Besides, the figures for the MIC in assay [2] and in assay [4] were 3.13 µg/mL (≈ 12.1 µM) and 1.6 µg/mL (≈ 6.17 µM), respectively. In addition, the Ratio in assay [3] is 0.81. The Selective index in the assay on Vero was 78.12.
In assay [1], `C/C=N/NC(=O)c1ccncc1` came in with an EC90 of 0.03 µg/mL (≈ 0.184 µM) and an EC99 of 0.08 µg/mL. This compound also returned an MIC in assay [2] of 0.025 µg/mL (≈ 0.153 µM). The Ratio in assay [3] came to 1.2. Further, in assay [4], the MBC came out at 0.05 µg/mL (≈ 0.306 µM) and the MIC worked out at 0.025 µg/mL (≈ 0.153 µM). Moreover, the Selective index in the assay on Vero is reported as over 2500.
For the compound `N#CC[n+]1ccc(C(=O)NNCC(F)(F)F)cc1`, in assay [1], it took 1.14 µg/mL to reach the 90% level (EC90) and the 99% effect level (EC99) was put at 10.6 µg/mL. The MIC in assay [2] stood at 12.5 µg/mL. Also, in assay [3], the Ratio is 0.091. For the same compound, in assay [4], the MBC worked out at 3.13 µg/mL and the MIC worked out at 0.78 µg/mL. Moreover, the Selective index in the assay on Vero is 122.
In the case of `C/C(=N\NC(=O)c1ccncc1)c1cccc(/C(C)=N/NC(=O)c2ccncc2)n1`, in assay [1], the EC90 was 0.09 µg/mL (≈ 0.224 µM) and the EC99 amounted to 0.29 µg/mL. The MIC in assay [2] stood at 0.39 µg/mL (≈ 0.972 µM). Moreover, the Ratio in assay [3] is 0.23. In assay [4], this compound returned an MBC of 12.5 µg/mL (≈ 31.1 µM) and an MIC of at most 0.2 µg/mL. Further, the Selective index in the assay on Vero is recorded as 320.5.

The values above are taken from ChEMBL document CHEMBL1145244, “In vitro advanced antimycobacterial screening of isoniazid-related hydrazones, hydrazides and cyanoboranes: part 14” (2005).
